Reference: patent US4105766A, “4,5-Dihydro-5-oxopyrazolo[1,5-a]quinazoline-3-carboxylic acid derivatives” (Sterling Drug Inc., priority 1977, dated 1978)

Legend:
[1] = tested on: passive cutaneous anaphylaxis; assay: passive cutaneous anaphylaxis test in rats (anti-allergy); format: in vivo; conditions: for R (ratio, passive cutaneous anaphylaxis) / ED50 / % Inhibition (passive cutaneous anaphylaxis) / inhibition in vivo at 100 mg/kg: rats; for R (ratio, passive cutaneous anaphylaxis): R 1.0 to 2.0 inactive, 2.0 to 4.0 weakly active, 4.0 to 8.0 moderately active, >8.0 strongly active; for ED50 / inhibition in vivo at 100 mg/kg: Rattus norvegicus, po; for ED50: passive cutaneous anaphylaxis, read-out: Average Effective Dose50 (AED50); for % Inhibition (passive cutaneous anaphylaxis) / inhibition in vivo at 100 mg/kg: standard dose of 100 mg./kg. (p.o.)
Text: (1) The inhibition of carrageenin-induced foot edema test essentially described by Winter et al., Proc. Soc. Exp. Biol. and Med. 111, 544 (1962) as modified by Van Arman et al., J. Pharmacol. Exptl. Therap. 150, 328 (1965) and (2) a modification of the inhibition of adjuvant-induced arthritis test described by Pierson, J. Chronic Diseases 16, 863 (1963) and Glenn et al., Am. J. Vet. Res. 26, 1180 (1965), which were used to establish the anti-inflammatory activities of the compounds; and the passive cutaneous anaphylaxis test described by Mielens et al., Int. Arch. Allergy Appl. Immunol. 47, 633-649 (1974) which was used to establish the anti-allergy activity of the compounds.
Results are expressed either in terms of % Inhibition at a standard dose of 100 mg./kg. (p.o.), as an Average Effective Dose50 (AED50), or as a ratio, R, where: [formula]

[2] = tested on: adjuvant-induced arthritis; assay: adjuvant arthritis test (AA), inhibition of adjuvant-induced arthritis in rats; format: in vivo; conditions: Rattus norvegicus; for inhibition in vivo at 324 µmol/kg: dose .324 mmole/kg.; for inhibition in vivo at 20 µmol/kg: dose .02 mmole/kg.; for inhibition in vivo at 80 µmol/kg: dose .08 mmole/kg.
[3] = tested on: carrageenin-induced foot edema; assay: carrageenin-edema test (CE), inhibition of carrageenin-induced foot edema in rats; format: in vivo; conditions: Rattus norvegicus, read-out: % Inhibition C.E.; for inhibition in vivo at 80 µmol/kg: dose .08 mmole/kg.; for inhibition in vivo at 324 µmol/kg: dose .324 mmole/kg.
Protocol: (1) The inhibition of carrageenin-induced foot edema test essentially described by Winter et al., Proc. Soc. […] Therap. […] J. Vet. […] Arch. Allergy Appl. Immunol.
Here, and elsewhere in other tables which follow, compounds are identified by the Example number above where their preparations are recorded. For purposes of comparison, data are also given for the reference compound 4,5-dihydro-5-oxopyrazolo[1,5-a]quinazoline-3-carboxylic acid disclosed by Wright, ibid., identified here and elsewhere in the tables which follow as "Ref.".

Entamoeba criceti = assay: amoebacidal test in naturally infected hamsters; format: in vivo, Entamoeba criceti (in hamsters)
Protocol: Anti-parasitic activity of the compounds was shown by the following test procedures. Amoebacidal activity was shown in a test in which 100 or more female hamsters (Sprague-Dawley) weighing between 90 and 130 g. were individually weighed and sorted into groups of five animals each averaging either 100 ± 10 g. or 120 ± 10g. The test compounds (at least 200 mg.) and a reference standard, N,N'-(phenylenedimethylene)-bis[α,α-dichloro-N-(2-ethoxyethyl)acetamide] (FALMONOX®), were dissolved or suspended in 10 percent gelatin. The test compounds and the reference standard were administered to the naturally infected hamsters intragastrically via syringe in equally subdivided doses of 0.5 ml. […] On the fourth day each of the test animals and the five hamsters receiving the reference drug, as well as non-medicated infected control animals, were killed and a portion of the mucus from the wall of the cecum was mixed in a drop of 0.85% sodium chloride. The preparation was examined under low power (100 ×) of a compound microscope for the presence of motile trophozoites of Entamoeba criceti, and when a preparation was determined to be free from trophozoites, a second specimen was taken from another part of the cecum of the same animal and thoroughly examined before the animal was declared cleared of amoebas. […] Results were recorded as a fraction: number of hamsters cleared/number of hamsters treated.
(§1) Results obtained in amoebacidal and trypanosomicidal tests on the compounds of the invention against E. criceti and T. brucei, respectively, are given in the table below. Results are expressed as a ratio: Number of Animals Cleared/Total Test Animals.

Trypanosoma brucei = assay: trypanosomicidal test in infected mice; format: in vivo, Trypanosoma brucei (in mice)
Protocol: Trypanosomicidal activity of the compounds of the invention was determined in a test procedure in which albino female mice (Taconic Farms) weighing 20± 2 g. were intraperitoneally injected 3 days prior to initial medication with 0.2 ml. of an inoculum containing 500 Trypanosoma brucei organisms in 0.85% sterile saline. Blood for infecting purposes was obtained via cardiac puncture of a donor mouse previously determined to have a high parasitemia. Test medications to groups of five mice were started 3 days after infection at a time when the animals had begun to develop a rising blood parasitemia. […] Groups of 10 non-medicated infected control mice and five animals medicated with the reference compound LAMPIT® (tetrahydro-3-methyl-4-[(5-nitrofurfurylidene)amino]-2H-1,4-thiazine-1,1-dioxide) were included in each screening test. The test system is based on the survival of animals medicated with the test compound, and those mice alive at the end of 28 days post-infection were recorded as cured. (Non-medicated infected control mice rarely succumb later than 5 to 6 days post-innoculation with T. brucei). A compound was considered active if at least two of five animals survived until the termination of a 28 day post-infection holding period.
as §1

[4] = dose 200 mg./kg. p.o. 2×/day × 4

CC(C)=CCn1c(=O)c2ccccc2n2ncc(C(=O)O)c12 [Example 7E]
R (ratio, passive cutaneous anaphylaxis) [1]: 3.8 | inhibition in vivo at 324 µmol/kg [2]: 34% | inhibition in vivo at 80 µmol/kg [3]: 3% | inhibition in vivo at 324 µmol/kg [3]: 4%

CCOC(=O)c1cnn2c3ccc([N+](=O)[O-])cc3c(=O)n(C)c12 [Example 4, ethyl 4-methyl-7-nitro-4,5-dihydro-5-oxopyrazolo[1,5-a]quinazoline-3-carboxylate]
No. Cleared/No. Tested, Amoeba (Entamoeba criceti; dose 100 mg./kg.): 2/4

Cn1c(=O)c2cc([N+](=O)[O-])ccc2n2ncc(C(=O)O)c12 [Example 7S]
ED50 [1]: 37 mg/kg

CCOC(=O)c1cnn2c1[nH]c(=O)c1ccc(C)cc12 [Example 1B]
% Inhibition (passive cutaneous anaphylaxis) [1]: Inac.

C=CCn1c(=O)c2cc(F)ccc2n2ncc(C(=O)O)c12 [Example 7Q]
inhibition in vivo at 324 µmol/kg [2]: 72% | inhibition in vivo at 80 µmol/kg [3]: 0% | inhibition in vivo at 324 µmol/kg [3]: 4%

Cn1c(=O)c2cc(N)ccc2n2ncc(C(=O)O)c12 [Example 10, 7-amino-4-methyl-4,5-dihydro-5-oxopyrazolo[1,5-a]quinazoline-3-carboxylic acid]
No. Cleared/No. Tested, Amoeba (Entamoeba criceti; dose 50 mg./kg.): 0/5 | No. Cleared/No. Tested, Amoeba (Entamoeba criceti; dose 100 mg./kg.): 5/5

C=CCn1c(=O)c2ccccc2n2ncc(C(=O)O)c12 [Example 7B, 4-(2-propenyl)-4,5-dihydro-5-oxopyrazolo[1,5-a]quinazoline-3-carboxylic acid]
inhibition in vivo at 100 mg/kg [1]: 40% | inhibition in vivo at 20 µmol/kg [2]: 18% | inhibition in vivo at 80 µmol/kg [2]: 34% | inhibition in vivo at 324 µmol/kg [2]: 84% | inhibition in vivo at 80 µmol/kg [3]: 38% | inhibition in vivo at 324 µmol/kg [3]: 73%

CCn1c(=O)c2ccccc2n2ncc(C(=O)O)c12 [Example 7A]
ED50 [1]: 12 mg/kg | inhibition in vivo at 100 mg/kg [1]: 81% | inhibition in vivo at 80 µmol/kg [2]: 27% | inhibition in vivo at 324 µmol/kg [3]: 33%

O=C(O)c1cnn2c1[nH]c(=O)c1ccc(Cl)cc12 [Example 7L]
inhibition in vivo at 100 mg/kg [1]: 74% | No. Cleared/No. Tested, Amoeba (Entamoeba criceti; dose 100 mg./kg.): 2/5

C=C(C)Cn1c(=O)c2ccccc2n2ncc(C(=O)O)c12 [Example 7D]
R (ratio, passive cutaneous anaphylaxis) [1]: 4.6 | inhibition in vivo at 324 µmol/kg [2]: 43% | inhibition in vivo at 80 µmol/kg [3]: 15% | inhibition in vivo at 324 µmol/kg [3]: 24%

O=C(O)c1cnn2c3ccccc3c(=O)n(CC3CC3)c12 [Example 7C]
R (ratio, passive cutaneous anaphylaxis) [1]: 6.5 | inhibition in vivo at 324 µmol/kg [2]: 74% | inhibition in vivo at 80 µmol/kg [3]: 25% | inhibition in vivo at 324 µmol/kg [3]: 33%

O=C(O)c1cnn2c1[nH]c(=O)c1cc(Cl)ccc12 [Example 7J]
ED50 [1]: 5 to 10 mg/kg | inhibition in vivo at 100 mg/kg [1]: 92%

Cc1ccc2c(c1)c(=O)[nH]c1c(C(=O)O)cnn12 [Example 7F]
inhibition in vivo at 100 mg/kg [1]: 65%

CCOC(=O)c1cnn2c1[nH]c(=O)c1cc(Cl)ccc12 [Example 1C]
inhibition in vivo at 100 mg/kg [1]: 48%

CCOC(=O)c1cnn2c1[nH]c(=O)c1cc(F)ccc12 [Example 1E]
% Inhibition (passive cutaneous anaphylaxis) [1]: Inac.

CCOC(=O)c1cnn2c1[nH]c(=O)c1cc(C)ccc12 [Example 1A]
inhibition in vivo at 100 mg/kg [1]: 63%

Cn1c(=O)c2ccccc2n2ncc(C(=O)O)c12 [Example 7, 4-methyl-4,5-dihydro-5-oxopyrazolo[1,5-a]quinazoline-3-carboxylic acid]
inhibition in vivo at 100 mg/kg [1]: 68% | inhibition in vivo at 80 µmol/kg [2]: 16% | inhibition in vivo at 324 µmol/kg [2]: 39% | No. Cleared/No. Tested, Tryp. (Trypanosoma brucei; dose 100 mg./kg. p.o. 2×/day × 4): 0/5 | No. Cleared/No. Tested, Tryp. (Trypanosoma brucei; [4]): 5/5 | inhibition in vivo at 324 µmol/kg [3]: 11%

Cc1ccc2c(c1)c(=O)n(C)c1c(C(=O)O)cnn21 [Example 7H]
ED50 [1]: 34 mg/kg | inhibition in vivo at 100 mg/kg [1]: 73% | No. Cleared/No. Tested, Tryp. (Trypanosoma brucei; [4]): 10/10 | No. Cleared/No. Tested, Tryp. (Trypanosoma brucei; dose 200 mg./kg. p.o., i.p.): 4/5

CCOC(=O)c1cnn2c3ccc(Cl)cc3c(=O)n(C)c12 [Example 2H]
inhibition in vivo at 100 mg/kg [1]: 32% | No. Cleared/No. Tested, Amoeba (Entamoeba criceti; dose 100 mg./kg.): 2/4

Cn1c(=O)c2ccc(Cl)cc2n2ncc(C(=O)O)c12 [Example 7M]
inhibition in vivo at 100 mg/kg [1]: 56% | No. Cleared/No. Tested, Tryp. (Trypanosoma brucei; dose 200 mg./kg. p.o., i.p.): 5/5

CCOC(=O)c1cnn2c3ccc(F)cc3c(=O)n(C)c12 [Example 2K]
R (ratio, passive cutaneous anaphylaxis) [1]: 3.0

O=C(O)c1cnn2c1[nH]c(=O)c1ccccc12 [Ref., 4,5-dihydro-5-oxopyrazolo[1,5-a]quinazoline-3-carboxylic acid]
ED50 [1]: 2 to 15 mg/kg | inhibition in vivo at 100 mg/kg [1]: 62% | anti-allergic activity (in words) ([1]; rat, in vivo): possesses anti-allergic activity | inhibition in vivo at 20 µmol/kg [2]: 26% | inhibition in vivo at 80 µmol/kg [2]: 31% | inhibition in vivo at 324 µmol/kg [2]: 10% | inhibition in vivo at 80 µmol/kg [3]: 0% | inhibition in vivo at 324 µmol/kg [3]: 7%

Cc1ccc2c(=O)[nH]c3c(C(=O)O)cnn3c2c1 [Example 7G]
ED50 [1]: ~15 mg/kg

Cn1c(=O)c2cc(F)ccc2n2ncc(C(=O)O)c12 [Example 7P]
% Inhibition (passive cutaneous anaphylaxis) [1]: Inac. | Amoeba (activity in words) (Entamoeba criceti; dose not given): Inac. (inactive when zero or one of the five hamsters were trophozoite free) | No. Cleared/No. Tested, Tryp. (Trypanosoma brucei; dose 200 mg./kg. p.o., i.p.): 3/5 | inhibition in vivo at 324 µmol/kg [3]: 0%

Cn1c(=O)c2cc(Br)ccc2n2ncc(C(=O)O)c12 [Example 7R]
inhibition in vivo at 100 mg/kg [1]: 63%

Cn1c(=O)c2cc(NC(=S)Nc3ccccc3)ccc2n2ncc(C(=O)O)c12 [Example 7T]
No. Cleared/No. Tested, Amoeba (Entamoeba criceti; dose 50 mg./kg.): 0/3 | No. Cleared/No. Tested, Amoeba (Entamoeba criceti; dose 100 mg./kg.): 3/3 | Tryp. (activity in words) (Trypanosoma brucei; dose not given): Inac. (inactive if none of the animals survived to the end of the test)

Cn1c(=O)c2cc(Cl)ccc2n2ncc(C(=O)O)c12 [Example 7K]
ED50 [1]: 9 mg/kg | No. Cleared/No. Tested, Tryp. (Trypanosoma brucei; dose 200 mg./kg. p.o., i.p.): 2/4

Cn1c(=O)c2ccccc2n2ncc(C(=O)OCOC(=O)C(C)(C)C)c12 [Example 9, pivaloyloxymethyl 4-methyl-4,5-dihydro-5-oxopyrazolo[1,5-a]quinazoline-3-carboxylate]
R (ratio, passive cutaneous anaphylaxis) [1]: 6.7

C=CCn1c(=O)c2ccccc2n2ncc(C(=O)O)c12 [Example 8, sodium 4-(2-propenyl)-4,5-dihydro-5-oxopyrazolo[1,5-a]quinazoline-3-carboxylate]
inhibition in vivo at 20 µmol/kg [2]: 29% | inhibition in vivo at 80 µmol/kg [2]: 47% | inhibition in vivo at 324 µmol/kg [2]: 80% | inhibition in vivo at 90 µmol/kg ([3]; dose .09 mmole/kg.): 20% | inhibition in vivo at 360 µmol/kg ([3]; dose .36 mmole/kg.): 31%

CCOC(=O)c1cnn2c3ccccc3c(=O)n(C)c12 [Example 2, ethyl 4-methyl-4,5-dihydro-5-oxopyrazolo[1,5-a]quinazoline-3-carboxylate]
No. Cleared/No. Tested, Tryp. (Trypanosoma brucei; dose 50 mg./kg. p.o., i.p.): 0/5 | No. Cleared/No. Tested, Tryp. (Trypanosoma brucei; dose 200 mg./kg. p.o., i.p.): 2/5

CCOC(=O)c1cnn2c3ccc(C)cc3c(=O)n(C)c12 [Example 2F]
inhibition in vivo at 100 mg/kg [1]: 6% | % Inhibition (passive cutaneous anaphylaxis) [1]: Inac. | No. Cleared/No. Tested, Amoeba (Entamoeba criceti; dose 25 mg./kg.): 0/5 | No. Cleared/No. Tested, Amoeba (Entamoeba criceti; dose 100 mg./kg.): 5/5

CCOC(=O)c1cnn2c3cc(C)ccc3c(=O)n(C)c12 [Example 2G]
inhibition in vivo at 100 mg/kg [1]: 46%
